Assay results taken from patent US20100330200A1, “COMBINATION OF A RETINOID AND A PLATINUM ANTICANCER AGENT” (SIGMA-TAU INDUSTRIE FARMACEUTICHE RIUNITE S.P.A., priority 2006, published 2010).
“And” between values parts separate entries of the source, which are not always exact repeats. Identical values can stand only once. Like-named read-outs stand apart in the source and are kept apart here.

Legend:
[1] = tested on: human ovarian carcinoma xenografts; test: Panel of human ovarian carcinoma xenografts, statements over several tumors
Source text: (§1) Drug treatment started at different tumor sizes.
(§2) Cisplatin was delivered intravenously every seventh day for three times (q7d×3).

[2] = tested on: MDA-MB231 bone metastases; settings: for Incidence of ostelytic lesions (%) / Incidence of ostelytic lesions (mice/total) / Osteolytic area mm^2 ± SD / Osteolytic area square pixel ± SD: 29 days after tumor implantation, cisplatin 3.1 mg/kg iv q7dx3; for Incidence of ostelytic lesions (%) / Incidence of ostelytic lesions (mice/total) / Osteolytic area mm^2 ± SD / Osteolytic area square pixel ± SD / frequency of osteolysis in tibias compared with the control group: ST1926 25 mg/kg po qdx2/wx3w; for frequency of osteolysis in tibias compared with the control group: radiographs 29 days from injection, cisplatin 3.1 iv q7dx3
Protocol: A human breast cancer cell line, MDA-MB231 was cultured in DMEM supplemented with 10% FCS and 1% penicillin-streptomycin solution in a humidified atmosphere of 5% CO2 in air. Cultured used for intratibial injection were at subconfluency. Cells (1×10^5) were suspended in 0.1 ml of PBS and injected into the tibia of female BALB/c-nu/nu mice with the use of a 27-gauge needle under the anesthesia ip of ketamine and xylazine chloride.
Animals were housed under a light-dark cycle, keeping temperature and humidity constant. Parameters of the animal rooms were assessed as follows: 22±2° C. temperature, 55±10% relative humidity, about 15-20 filtered air changes/hour and 12 hour circadian cycle of artificial light (7 a.m., 7 p.m.). At request, the environmental conditions were monitored and the data are retained in Animal Housing Archives. Drinking water was supplied ad libitum. Each mouse was offered daily a complete pellet diet (GLP 4RF21, Mucedola) throughout the study. The analytical certificates of animal food and water are retained at Sigma-Tau premises. All animals were weighed before starting the experiment and were subdivided into the different dosage groups. Each cage was identified by a paper tag indicating: cage number, group, date of tumor injection, starting date of treatment, name of the test item, dose and route of administration, date of sacrifice.
Incidence of osteolytic lesions and ostelytic area were evaluated 29 days after tumor implantation.

1A9PTX22 = settings: for LCK (gross log10 cell kill) / TVI % Obs.: 1A9PTX22 s.c.
Source text: as §1, §2
(§3) For statistical comparison of tumor volumes in treated vs. control mice the Student's t test (two-sided) was used.

A2780/DDP = settings: for LCK (gross log10 cell kill) / TVI % Obs.: A2780/DDP s.c.
Source text: as §1, §2, §3

HOC18 ovarian carcinoma = tested on: HOC18 ovarian carcinoma
Source text: as §1, §2, §3

A2780 ovarian carcinoma = settings: for LCK (gross log10 cell kill) / TVI % Obs.: A2780 s.c.
Source text: as §1, §2, §3

in vivo = settings: female, athymic Swiss nude, mouse, po
[3] = tested on: IGROV-1 ovarian carcinoma; test: s.c. growing IGROV-1 tumor, ST1926 doses and schedules
[4] = tested on: IGROV-1 ovarian carcinoma; test: i.p. growing IGROV-1 tumor, locoregional treatment, survival; type: in vivo
Protocol: The IGROV-1 ovarian carcinoma line was maintained by serial intraperitoneal passages in healthy mice. Tumor grows as ascites and small solid masses. IGROV-1 ascitic cells were collected and prepared as previously described [Pratesi G., Tortoreto M., Zunino F., Reg. Cancer Treat., 1990; 3:40-43] and 2.5×10^6 cells/mouse (in 0.2 ml of saline) were injected intraperitoneally. Mice developed hemorrhagic and diffuse carcinomatosis and eventually died by 20 to 35 days. Animals were inspected daily and weighed three times a week. The median day of death (median survival time: MST) was considered as the experimental end point.
Experimental groups consisted of seven mice.
The compound was delivered intraperitoneally at a dose of 10 mg/kg, daily for 5 days a week for 4 weeks (qd×5/w×4w), starting the day after cell injection. Drug activity was assessed as increase in life span (ILS) %, i.e. the percentage increase of MST in treated (T) over control (C) mice (T/C×100−100). Mice alive at the end of experiment (day 88) without disease were considered “long term survivors” (LTS).
For statistical comparison, curves reporting the percentage of surviving animals over time were estimated by the Kaplan-Meier product limit method and compared with the log-rank test. The test was two-sided.

[5] = tested on: IGROV-1 ovarian carcinoma; settings: in vivo
[6] = tested on: FaDu human squamous pharynx carcinoma; test: FaDu squamous pharynx carcinoma s.c. xenograft; type: in vivo, mouse (human xenograft); settings: ST1926 25 mg/kg oral qdx2/wx3w, carboplatin 40 mg/kg ip q7dx3, combination: carboplatin 1 h before ST1926
Protocol: The FaDu human squamous pharynx carcinoma cells (3×10^6 tumor cells) were injected sc in the right flank of CD1 nude female mice.

[7] = HOC18 s.c., cisplatin 3.1 mg/kg iv q7dx3
[8] = HOC18 s.c., cisplatin 4.7 mg/kg iv q7dx3
[9] = cisplatin 3.1 mg/kg iv q7dx3, 1st day 2
[10] = i.p. growing tumor, 10 mg/kg i.p. qdx5/wx4w
[11] = ST1926 30 mg/kg oral qdx2/wx3w, 1st day 34
[12] = ST1926 45 mg/kg oral qdx2/wx3w, 1st day 2
[13] = HOC18 s.c., ST1926 30 mg/kg oral qdx2/wx3w, 1st day 27
[14] = ST1926 30 mg/kg oral qdx2/wx3w, 1st day 2

N.N.[Cl][Pt][Cl] [Cisplatin, cisplatin]
body weight loss ([1]; optimal doses of cisplatin): around 20%
Incidence of ostelytic lesions (%) [2]: 71%
Incidence of ostelytic lesions (mice/total) [2]: 5/7
Osteolytic area mm^2 ± SD [2]: 4.6 ± 1.9 mm^2
Osteolytic area square pixel ± SD [2]: 458 ± 190 square pixel
frequency of osteolysis in tibias compared with the control group [2]: no significant differences
LCK (gross log10 cell kill) (1A9PTX22; cisplatin 3.1 mg/kg iv q7dx3): 0.3
TVI % Obs. (1A9PTX22; cisplatin 3.1 mg/kg iv q7dx3): 38%
LCK (gross log10 cell kill) (1A9PTX22; cisplatin 4.7 mg/kg iv q7dx3): 0.6
TVI % Obs. (1A9PTX22; cisplatin 4.7 mg/kg iv q7dx3): 57%
LCK (gross log10 cell kill) (A2780/DDP; cisplatin 4.7 mg/kg iv q7dx3): 0
TVI % Obs. (A2780/DDP; cisplatin 4.7 mg/kg iv q7dx3): 15%
LCK (gross log10 cell kill) (HOC18 ovarian carcinoma; [7]): 1.0
TVI % Obs. (HOC18 ovarian carcinoma; [7]): 41%
LCK (gross log10 cell kill) (HOC18 ovarian carcinoma; [8]): >>1.7
TVI % Obs. (HOC18 ovarian carcinoma; [8]): 81%
NED (not evidence of disease at the end of the experiment) (HOC18 ovarian carcinoma; HOC18 s.c., cisplatin 4.7 mg/kg iv q7dx3, tumors/total): 1/10
complete responses (no evidence of disease at the experiment end), tumors (HOC18 ovarian carcinoma; HOC18 tumor, dose groups taken together): 1/10
LCK (gross log10 cell kill) (A2780 ovarian carcinoma; [9]): 0.4
TVI % Obs. (A2780 ovarian carcinoma; [9]): 40%
LCK (gross log10 cell kill) (A2780 ovarian carcinoma; cisplatin 4.7 mg/kg iv q7dx3): 1.2
TVI % Obs. (A2780 ovarian carcinoma; cisplatin 4.7 mg/kg iv q7dx3): 80%

O=C(O)/C=C/c1ccc(-c2ccc(O)c(C34CC5CC(CC(C5)C3)C4)c2)cc1 [ST1926, E-4-(3-(1-adamantyl)-4-hydroxyphenyl)cinnamic acid]
TV inhibition, all the tumors investigated ([1]; ST1926 30 or 45 mg/kg per os qdx2/w for 2 or 3 weeks): ≤ 50%
MTD (in vivo): 15 mg/kg
LCK ([3]; 15 mg/kg oral qdx2/wx2w): 0.1
TVI % ([3]; 15 mg/kg oral qdx2/wx2w): 39%
LCK ([3]; 15 mg/kg oral qdx5/wx3w): 0.4
TVI % ([3]; 15 mg/kg oral qdx5/wx3w): 52%
LCK ([3]; 5 × 2 mg/kg oral qdx5/wx4w): 0.3
TVI % ([3]; 5 × 2 mg/kg oral qdx5/wx4w): 35%
survival time over control mice ([4]; i.p. growing IGROV-1, 10 mg/kg qdx5/wx4 weeks): significantly (P<0.01) increased
ILS (increase in life span % in treated over control mice) [4, 10]: 91%
Tox (No. of dead mice/total no. of mice) [4, 10]: 0/7
LTS (long term survivors at the end of experiments, day 88) ([4]; i.p. growing tumor, 10 mg/kg i.p. qdx5/wx4w, 10 mg/kg): 2 out of 7 and 2/7
BWL (body weight loss %, highest) ([5]; 2 mg/kg): 12%
BWL (body weight loss %, highest) ([5]; 20 mg/kg): 25%
Incidence of ostelytic lesions (%) [2]: 63%
Incidence of ostelytic lesions (mice/total) [2]: 5/8
Osteolytic area mm^2 ± SD [2]: 3.1 ± 1.0 mm^2
Osteolytic area square pixel ± SD [2]: 310 ± 106 square pixel
tolerability in tumor-bearing mice ([2]; in vivo, po, 25 mg/kg): well-tolerated
frequency of osteolysis in tibias compared with the control group [2]: no significant differences
TVI [6]: 35%
LCK (gross log10 cell kill) (1A9PTX22; [11]): 0.3
TVI % Obs. (1A9PTX22; [11]): 35%
BWL % (highest) (1A9PTX22; in vivo, 30 mg/kg): 10%
LCK (gross log10 cell kill) (A2780/DDP; [12]): 0.8
TVI % Obs. (A2780/DDP; [12]): 41%
BWL % (highest) (A2780/DDP; in vivo, 45 mg/kg): 13%
LCK (gross log10 cell kill) (HOC18 ovarian carcinoma; [13]): 0.4
TVI % Obs. (HOC18 ovarian carcinoma; [13]): 37%
BWL % (highest) (HOC18 ovarian carcinoma; in vivo, 30 mg/kg): 3%
LCK (gross log10 cell kill) (A2780 ovarian carcinoma; [14]): 0.4
TVI % Obs. (A2780 ovarian carcinoma; [14]): 40%
BWL % (highest) (A2780 ovarian carcinoma; in vivo, 30 mg/kg): 5%

N.N.O=C([O-])C1(C(=O)[O-])CCC1.[Pt+2] [carboplatin, reference compound]
TVI [6]: 52%
